Assay: xn = mol fraction of the nth substance listed
Conditions: 100 kPa

CCOP(=O)([O-])OCC.CC[n+]1ccn(C)c1 + CCO
viscosity [mPa·s]
Conditions | 293.15 K | 298.15 K | 303.15 K | 308.15 K | 313.15 K | 318.15 K | 323.15 K | 328.15 K | 333.15 K | 338.15 K
x1 = 0.1002 | 3.82 | 3.46 | 3.1 | 2.8 | 2.58 | 2.39 | 2.28 | – | 2.05 | 1.94
x1 = 0.1992 | 8.71 | 7.58 | 6.67 | 5.96 | 5.38 | 4.92 | 4.57 | – | 4.06 | 3.86
x1 = 0.2987 | 18.6 | 15.84 | 13.57 | 11.74 | 10.35 | 9.23 | 8.34 | 7.65 | 7 | 6.48
x1 = 0.4007 | 35.9 | – | – | 20.9 | 18 | 15.6 | 13.64 | 12.11 | – | 9.9
x1 = 0.5007 | 65.5 | 52 | 41.8 | 34.4 | 28.6 | 24 | 20.8 | 18.1 | 15.82 | 13.95
x1 = 0.5993 | 106.8 | 83 | 64.6 | 51.6 | 41.6 | 34.2 | 28.8 | – | 20.8 | 18.1
x1 = 0.7003 | – | – | 102.1 | – | 63.3 | 50.3 | – | 33.5 | 28.1 | –
x1 = 0.8 | 256 | 187 | – | 107.6 | 82.5 | 65.4 | 52.6 | 42.7 | 35 | 29.3
x1 = 0.8985 | – | 271 | – | 146.8 | 112.5 | – | 68.7 | 54.6 | 44.5 | 36.5
x1 = 1 | – | 397 | 285 | 209 | – | 117.2 | 91.7 | 71.2 | 57.3 | 46.2

CCO + CCOP(=O)([O-])OCC.CC[n+]1ccn(C)c1
x2 = 0
Conditions | viscosity [mPa·s]
293.15 K | 1.18
298.15 K | 1.11
303.15 K | 0.98
308.15 K | 0.89
313.15 K | 0.82
323.15 K | 0.69
328.15 K | 0.65
333.15 K | 0.6
338.15 K | 0.56
